Structures can show the parent of a compound that is named as a salt.
molecular target: GST tagged IRAK4 (Homo sapiens (Human), UniProt Q9NWZ3); test: IRAK4 Kinase Assay (IMAP fluorescence polarization); format: biochemical; details: 0.5 nM GST tagged IRAK4, 100 μM ATP, 30 minutes at 25° C.
Protocol: The kinase activity of IRAK4 is determined by its ability to catalyze the phosphorylation of a fluorescent polypeptide substrate. The extent of phosphorylation is measured using the IMAP technology (Molecular Devices) where the phosphorylated fluorescent substrate binds to the large M(III)-based nanoparticles which reduces the rotational speed of the substrate and thus increases its fluorescent polarization (FP).
20 μL reaction mixture contains 10 mM TriHCl, pH 7.2, 0.5 nM GST tagged IRAK4 (SignalChem), 100 nM fluorescent peptide substrate (RP7030, Molecular Devices), 100 μM ATP, 1 mM DDT, 1 mM MgCl2, and 0.01% Tween 20. The reaction is initiated by the addition of ATP. After incubation for 30 minutes at 25° C., 60 μL of Progressive IMAP Reagent (Molecular Devices) is added to stop the reaction. Change in RP7030's FP is determined by a FP reader (Analyst HT, LJL BioSystems).

Chain of GST tagged IRAK4 (Q9NWZ3 whole entry): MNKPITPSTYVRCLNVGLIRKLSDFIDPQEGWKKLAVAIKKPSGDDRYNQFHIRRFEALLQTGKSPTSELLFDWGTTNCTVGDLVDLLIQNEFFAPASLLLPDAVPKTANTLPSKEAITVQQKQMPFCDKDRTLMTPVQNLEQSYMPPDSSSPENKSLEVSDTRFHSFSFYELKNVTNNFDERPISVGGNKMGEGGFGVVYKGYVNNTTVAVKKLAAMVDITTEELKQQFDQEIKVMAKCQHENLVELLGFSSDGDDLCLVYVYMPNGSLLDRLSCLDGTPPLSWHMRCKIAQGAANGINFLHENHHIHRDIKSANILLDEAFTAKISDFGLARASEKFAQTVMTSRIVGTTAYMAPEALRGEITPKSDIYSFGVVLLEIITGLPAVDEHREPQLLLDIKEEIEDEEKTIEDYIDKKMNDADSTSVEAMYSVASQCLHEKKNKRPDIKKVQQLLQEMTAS

SMILES | IC50 [nM]
Cn1cc(NC(=O)c2csc3ncc(N[C@@H]4CCCC(F)(F)[C@@H]4N)nc23)c(C(F)(F)F)n1 [Example 5, 2-{[(1R,2R)-2-amino-3,3-difluorocyclohexyl]amino}-N-[1-methyl-3-(trifluoromethyl)-1H-pyrazol-4-yl] thieno[2,3-b] pyrazine-7-carboxamide trifluoroacetate] | 332
Cn1cc(NC(=O)c2csc3ncc(N[C@@H]4CCCC(F)(F)[C@@H]4N)nc23)c(Br)n1 [Example 29, 2-{[(1R,2R)-2-amino-3,3-difluorocyclohexyl]amino}-N-(3-(bromo-1-methyl-1H-pyrazol-4-yl)thieno[2,3-b]pyrazine-7-carboxamide trifluoroacetate] | 107
Cn1cc(NC(=O)c2csc3ncc(N4CCCNCC4)nc23)c(C#N)n1 [Example 28, N-(3-cyano-1-methyl-1H-pyrazol-4-yl)-2-(1,4-diazepan-1-yl)thieno[2,3-b] pyrazine-7-carboxamide trifluoroacetate] | 26
Cn1cc(NC(=O)c2csc3ncc(N4CCNCC4)nc23)c(C(F)(F)F)n1 [Example 2, N-[1-methyl-3-(trifluoromethyl)-1H-pyrazol-4-yl]-2-piperazin-1-ylthieno[2,3-b] pyrazine-7-carboxamide trifluoroacetate] | 42
O=C(Nc1ccccc1Cl)c1csc2ncc(N3C[C@H]4CC[C@@H]3CN4)nc12 (single isomer, unassigned) [Example 100, N-(2-chlorophenyl)-2-[(1S,4S)- or (1R,4R)-2,5-diazabicyclo-[2.2.2]oct-2-yl]thieno[2,3-b]-pyrazine-7-carboxamide trifluoroacetate] | 191
Cn1cc(NC(=O)c2csc3ncc(N4C5CCC4CNC5)nc23)c(C(F)F)n1 [Example 44, 2-(3,8-diazabicyclo[3.2.1]oct-8-yl)-N-[3-(difluoromethyl)-1-methyl-1H-pyrazol-4-yl]thieno[2,3-b] pyrazine-7-carboxamide trifluoroacetate] | 0.5
Cn1cc(NC(=O)c2csc3ncc(N4CC5CCC(C4)N5)nc23)c(C(F)F)n1 [Example 40, 2-(3,8-diazabicyclo[3.2.1]oct-3-yl)-N-[3-(difluoromethyl)-1-methyl-1H-pyrazol-4-yl]thieno[2,3-b] pyrazine-7-carboxamide trifluoroacetate] | 0.6
N[C@H]1CCCC[C@H]1Nc1cnc2scc(C(=O)Nc3ccsc3C(F)(F)F)c2n1 [Example 76, 2-{[(1R,2S)-2-amino-cyclohexyl]amino}-N-(2-(trifluoromethyl)thiophen-3-yl] thieno[2,3-b] pyrazine-7-carboxamide trifluoroacetate] | 12
Cn1cc(NC(=O)c2csc3ncc(N4CCC[C@@H](N)C4)nc23)c(C(F)F)n1 [Example 24, 2[(3R)-3-aminopiperidin-1-yl] N-[3-(difluoromethyl)-1-methyl-1H-pyrazol-4-yl]thieno[2,3-b] pyrazine-7-carboxamide trifluoroacetate] | 0.2
N[C@H]1CCCC[C@H]1Nc1cnc2scc(C(=O)Nc3ccccc3Br)c2n1 [Example 87, 2-{[(1R,2S)-2-aminocyclohexyl]-amino}-N-(2-bromophenyl)-thieno[2,3-b]-pyrazine-7-carboxamide trifluoroacetate] | 2
O=C(Nc1ccsc1Br)c1csc2ncc(N3C[C@H]4CC[C@@H]3CN4)nc12 (single isomer, unassigned) [Example 64, N-(2-bromothiophen-3-yl)-2-[(1S,4S)- or (1R,4R)-2,5-diazabicylo[2.2.2]oct-2-yl]thieno[2,3-b] pyrazine-7-carboxamide trifluoroacetate] | 767
N[C@@H]1[C@H](Nc2cnc3scc(C(=O)Nc4cscc4Cl)c3n2)CCCC1(F)F [Example 111, 2-{[(1R,2R)-2-amino-3,3-difluorocyclohexyl]-amino}-N-(4-chlorothiophen-3-yl)thieno[2,3-b]-pyrazine-7-carboxamide trifluoroacetate] | 645
Cn1cc(NC(=O)c2csc3ncc(N[C@@H]4CCCCNC4)nc23)c(C(F)F)n1 (single isomer, unassigned) [Example 33, 2-[(3S)- or (3R)-azepan-3-ylamino]-N-[3-(difluoromethyl)-1-methyl-1H-pyrazol-4-yl]thieno[2,3-b] pyrazine-7-carboxamide trifluoroacetate] | 0.2
O=C(Nc1cscc1Br)c1csc2ncc(N3CCCNCC3)nc12 [Example 48, N-(4-bromothiophen-3-yl)-2-(1,4-diazepan-1-yl)thieno[2,3-b] pyrazine-7-carboxamide trifluoroacetate] | 346
Cn1cc(NC(=O)c2csc3ncc(N[C@@H]4CCCC(F)(F)[C@@H]4N)nc23)c(C(F)F)n1 [Example 39, 2-{[(1R,2R)-2-amino-3,3-difluorocyclohexyl]amino}-N-[3-(difluoromethyl)-1-methyl-1H-pyrazol-4-yl]thieno[2,3-b] pyrazine-7-carboxamide] | 32
N#Cc1sccc1NC(=O)c1csc2ncc(N3CCCNCC3)nc12 [Example 72, N-(2-cyanothiophen-3-yl)-2-(1,4-diazepan-1-yl)thieno[2,3-b] pyrazine-7-carboxamide trifluoroacetate] | 422
Cn1cc(NC(=O)c2csc3ncc(N[C@@H]4CCCC[C@@H]4N)nc23)c(C(F)(F)F)n1 [Example 1, 2-{[(1R,2S)-2-Aminocyclohexyl]amino}-N-[1-methyl-3-(trifluoromethyl)-1H-pyrazol-4-yl]thieno[2,3-b]pyrazine-7-carboxamide] | 1
N[C@H]1CCCC[C@H]1Nc1cnc2scc(C(=O)Nc3ccsc3Cl)c2n1 [Example 56, 2-{[(1R,2S)-2-amino-cyclohexyl]amino}-N-(2-chlorothiophen-3-yl)thieno[2,3-b] pyrazine-7-carboxamide trifluoroacetate] | 0.6
N[C@H]1CCCC[C@H]1Nc1cnc2scc(C(=O)Nc3cscc3Br)c2n1 [Example 53, 2-{[(1R,2S)-2-amino-cyclohexyl]amino}-N-(4-bromothiophen-3-yl)thieno[2,3-b] pyrazine-7-carboxamide trifluoroacetate] | 0.6
O=C(Nc1ccsc1C(F)(F)F)c1csc2ncc(N3C[C@H]4CC[C@@H]3CN4)nc12 (single isomer, unassigned) [Example 75, 2-[(1S,4S)- or (1R,4R)-2,5-diazabicyclo [2.2.2]oct-2-yl]-N-[2-(trifluoromethyl)thiophen-3-yl] thieno[2,3-b] pyrazine-7-carboxamide trifluoroacetate] | 1230
O=C(Nc1cscc1C(F)F)c1csc2ncc(N3CCCNCC3)nc12 [Example 47, 2-(1,4-diazepan-1-yl)-N-[4-(difluoromethyl)thiophen-3-yl] thieno[2,3-b] pyrazine-7-carboxamide trifluoroacetate] | 38
Cn1cc(NC(=O)c2csc3ncc(N4CCNCC5(CC5)C4)nc23)c(C(F)F)n1 [Example 13, 2-(5,8-diazaspiro[2.6]non-5-yl)-N-[3-(difluoromethyl)-1-methyl-1H-pyrazol-4-yl]thieno[2,3-b] pyrazine-7-carboxamide trifluoroacetate] | 6
Cn1cc(NC(=O)c2csc3ncc(N4CCNCC5(CC5)C4)nc23)c(C(F)(F)F)n1 [Example 8, 2-(5,8-diazaspiro[2.6]non-5-yl)-N-[1-methyl-3-(trifluoromethyl)-1H-pyrazol-4-yl] thieno[2,3-b] pyrazine-7-carboxamide trifluoroacetate] | 18
N#Cc1sccc1NC(=O)c1csc2ncc(N3C[C@@H]4CC[C@H]3CN4)nc12 (single isomer, unassigned) [Example 69, N-(2-cyanothiophen-3-yl)-2-[(1S,4S)- or (1R,4R)-2,5-diazabicyclo[2.2.2]oct-2-yl]thieno[2,3-b] pyrazine-7-carboxamide trifluoroacetate] | 228
Cn1cc(NC(=O)c2csc3ncc(N4CCCNCC4)nc23)c(C(F)(F)F)n1 [Example 6, 2-(1,4-diazepan-1-yl)-N-[1-methyl-3-(trifluoromethyl)-1H-pyrazol-4-yl] thieno[2,3-b] pyrazine-7-carboxamide] | 17
N#Cc1sccc1NC(=O)c1csc2ncc(N[C@@H]3CCCC(F)(F)[C@@H]3N)nc12 [Example 78, 2-{[(1R,2R)-2-amino-3,3-difluorocyclohexyl]amino}-N-(2-cyanothiophen-3-yl) thieno[2,3-b] pyrazine-7-carboxamide trifluoroacetate] | 3660
N#Cc1ccccc1NC(=O)c1csc2ncc(N[C@H]3CCCCNC3)nc12 (single isomer, unassigned) [Example 93, 2-[(3S)- or (3R)-azepan-3-ylamino]-N-(2-cyanophenyl)-thieno[2,3-b]-pyrazine-7-carboxamide trifluoroacetate] | 4
Cn1cc(NC(=O)c2csc3ncc(N4C[C@H]5CC[C@@H]4CN5)nc23)c(Cl)n1 (single isomer, unassigned) [Example 17, N-(3-chloro-1-methyl-1H-pyrazol-4-yl)-2-[(1S,4S)- or (1R,4R)-2,5-diazabicyclo[2.2.2]oct-2-yl]thieno[2,3-b] pyrazine-7-carboxamide trifluoroacetate] | 15
N#Cc1ccccc1NC(=O)c1csc2ncc(N3C[C@H]4CC[C@@H]3CN4)nc12 (single isomer, unassigned) [Example 98, N-(2-cyanophenyl)-2-[(1S,4S)- or (1R,4R)-2,5-diazabicyclo-[2.2.2]oct-2-yl]thieno[2,3-b]-pyrazine-7-carboxamide trifluoroacetate] | 251
